Data set [1] has as its system insulin secretion. The data set is described as follows: Determination of in vivo insulin secretion in normal rats. The following applies: fasted male Sprague Dawley rats, compound iv with glucose (1 g/kg), plasma insulin up to 20 minutes post-glucose. The method, then: D. Determination of in vivo Insulin Secretion in Normal Rats Male Sprague Dawley rats with a body weight of approximately 275-300 g were used as experimental subjects. The day prior to the treatment, right atrial cannulae were implanted via the jugular vein under chlorohydrate. Each cannula was filled with 100 u/ml heparin saline and tied. […] The day of the experiment, aliquots of compound were thawed, brought to room temperature and vortexed thoroughly. […] At time 0, a 500 μl blood sample was withdrawn through the cannula. Next, either the vehicle or the appropriate dose of the compound was injected into the cannula and pushed in with the glucose (1 g/kg) or vehicle solution. Finally, 500 μl of volume of heparinized saline (10 u/ml) was used to push in the remaining glucose through the cannula. […] The plasma was collected from the blood samples by centrifugation, and stored at −20° C. until assay for insulin content.

Data set [2] has as its target T1, human recombinant GIP receptor (Homo sapiens, UniProt P48546).
T1 construct: expressed in transfected cells; host or cells: CHO-K1 clonal cells (membrane preparation)
T1 sequence (P48546 22-466): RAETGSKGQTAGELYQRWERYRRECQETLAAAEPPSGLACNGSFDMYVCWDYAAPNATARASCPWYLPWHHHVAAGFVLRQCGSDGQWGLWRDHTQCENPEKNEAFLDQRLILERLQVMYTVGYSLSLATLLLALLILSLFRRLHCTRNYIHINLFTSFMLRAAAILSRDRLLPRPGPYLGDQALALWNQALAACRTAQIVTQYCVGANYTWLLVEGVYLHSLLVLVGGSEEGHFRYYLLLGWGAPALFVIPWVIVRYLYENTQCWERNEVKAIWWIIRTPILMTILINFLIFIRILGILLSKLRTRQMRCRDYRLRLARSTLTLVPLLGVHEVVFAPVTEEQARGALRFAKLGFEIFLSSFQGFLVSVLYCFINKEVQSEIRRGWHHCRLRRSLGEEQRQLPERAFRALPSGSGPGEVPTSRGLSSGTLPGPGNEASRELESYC
Nature of the data set: In vitro hGIP receptor binding assay. As for the experimental part:
A. In Vitro hGIP Receptor Binding Assay […] The incubations were terminated by rapid filtration through GF/C filters (pre-soaked in 0.5% polyethylenimine) using a Brandel filtration manifold. Each tube and filter were then washed three times with 5-ml aliquots of ice-cold buffer.

Data set [3] in a line: Human plasma half-life assay. Type of data set: in vitro ADME. The note with it: 37° C., LC-MS, read-out: Human Plasma T½ (converted).
A short description of data set [4]: Rat plasma half-life assay. In kind it is in vitro ADME. The note with it: 37° C., LC-MS, read-out: Rat Plasma T½ (converted).

Molecules are shown by their SMILES.

As to `CC[C@H](C)[C@H](NC(=O)[C@H](CCCCN)NC(=O)[C@H](CC(=O)O)NC(=O)[C@H](CCSC)NC(=O)[C@H](C)NC(=O)[C@@H](NC(=O)C1(NC(=O)[C@H](Cc2ccc(O)cc2)NC(=O)[C@H](CC(=O)O)NC(=O)[C@H](CO)NC(=O)[C@@H](NC(=O)[C@H](Cc2ccccc2)NC(=O)[C@@H](NC(=O)CNC(=O)[C@H](CCC(=O)O)NC(=O)C(C)(C)NC(=O)[C@@H](N)Cc2ccc(O)c(OC)c2)[C@@H](C)O)[C@@H](C)CC)CCCC1)[C@@H](C)CC)C(=O)N[C@@H](Cc1c[nH]cn1)C(=O)N[C@@H](CCC(N)=O)C(=O)N[C@@H](CCC(N)=O)C(=O)N[C@@H](CC(=O)O)C(=O)N[C@@H](Cc1ccccc1)C(=O)N[C@H](C(=O)N[C@@H](CC(N)=O)C(=O)N[C@@H](Cc1c[nH]c2ccccc12)C(=O)N[C@@H](CC(C)C)C(=O)N[C@@H](CC(C)C)C(=O)N[C@@H](C)C(=O)N[C@@H](CCC(N)=O)C(=O)N[C@@H](CCCCN)C(=O)NCC(=O)N[C@@H](CCCCN)C(=O)N[C@@H](CCCCN)C(=O)N[C@@H](CC(N)=O)C(=O)N[C@@H](CC(=O)O)C(=O)N[C@@H](Cc1c[nH]c2ccccc12)C(=O)N[C@@H](CCCCN)C(=O)N[C@@H](Cc1c[nH]cn1)C(=O)N[C@@H](CC(N)=O)C(=O)N[C@H](C(=O)NC1(C(=O)N[C@@H](CCC(N)=O)C(=O)O)CCCC1)[C@@H](C)CC)C(C)C` [Example 28, (3MeO-Tyr^1, Aib^2, A5c^11, 41)hGIP(1-42)-OH], the “AUC (total insulin secretion)” value in data set [1] was 92.88. Also, the inhibition constant Ki in data set [2] turned out to be 1.24 nM. The values for the half-life at 0.1 mg/ml in data set [3] and in data set [4] were greater than 57 h and 10 h, respectively.

The record behind these values is US8999940B2 (Ipsen Pharma S.A.S., priority 2008, dated 2015).
